Data reported in patent publication US20160015771A1, “METHOD OF TREATING OPTIC NERVE DAMAGE, OPHTHALMIC ISCHEMIA OR OPHTHALMIC REPERFUSION INJURY” (Curonz Holdings Company Limited, priority 2012, published 2016).

Experiments:
[1] = test system: Retinal Ganglion Cells (RGC); assay: Retinal ganglion cell (RGC) survival by BRN3A staining of flat-mounted retinae after optic nerve ligation/reperfusion; format: in vivo, Male Long-Evans rats; details: 8 days after injury
Experimental: Ischemia was maintained for 45 minutes.
At the end of the study, the animals were euthanized by intraperitoneal injection of overdosed pentobarbital. After euthanasia at day 8 after optic nerve ligation injury, the retinae of both eyes of N=6 animals per cohort were fixed in formalin 4% (1 h at room temperature), dissected and flat-mounted. The flat-mounted preparation was incubated with an Alexa 594 conjugated anti-BRN3A (Brain-specific homeobox/POU domain protein 3A, Chemicon, cat #mAb1585) to visualize the Retinal Ganglion Cells (RGC). Fluorescence was assessed by an Apotome microscope at magnification×20 (Zeiss) within twelve randomly selected respective microscopic fields per subject. The number of surviving RGC was determined with Axio Vision 4.2 software in the respective retinae areas.
Animals were sacrificed at day 8 and retinae were analysed for BrN3A (Brain-specific homeobox/POU domain protein 3A) protein expression patterns that are specific for retinal ganglion cells (RGCs). 12 fields per retina were evaluated.

[2] = test system: ischemia-related optic nerve injury; details: topically or intraperitoneal (IP) applied formulations; cited from earlier work

In the case of `Brc1c(NC2=NCCN2)ccc2nccnc12` [Brimonidine], the “total RGCs rescued” value ([1]; relative to non-ischemic eyes, saline group 19.6%) is listed as 39.6%, the RGC density ([1]; Brimonidine prophylactically applied, 1 mg/kg IP 1 h before ischemia, n=5, non-ischemic eyes 2158 RGCs/mm2) is listed as 855.5±30.7 RGCs/mm2 and the neuroprotective activity [2] is listed as “neuroprotective”.
